{
  "source": "paper PMC12696353",
  "about": "“Structural insights into endogenous agonist selectivity of aminergic receptors from the octopamine β2 receptor” (PNAS Nexus, 2025)",
  "key": {"[1]": {"biological_target": "I. scapularis octβ2R (is-octβ2R) (Ixodes scapularis, UniProt A0ACM8E5E8)", "experiment": "cell-based", "assay_type": "cell-based", "conditions": "for potency (EC50) relative to the other TDAs: order octopamine > tyramine > noradrenaline > dopamine", "description": "(§1) The TGFα shedding assay was performed as previously described ([28]). […] The cells were transfected using lipofectamine 2000 with plasmids encoding alkaline phosphatase–tagged TGFα (AP-TGFα) (2.5 ng/mL), is-octβ2Rs (1 ng/mL), and Gαq/s (0.5 ng/mL). After 24 h, the cells were washed with phosphate-buffered saline and resuspended in Hank's balanced salt solution (HBSS) (supplemented with 5 mM HEPES [pH 7.4]). The cells (90 μL/well) were plated in a 96-well plate and incubated with 10 μL of HBSS solution containing various concentrations of compounds for 1 h at 37 °C. Following centrifugation (200 × g, 2 min), 80 μL of the supernatant was transferred to a separate 96-well plate. Subsequently, 80 µL of 2× para-nitrophenyl phosphate (pNPP) buffer (containing 10 mM pNPP in 40 mM Tris–HCl [pH 9.5], 40 mM NaCl, and 10 mM MgCl2) was added to both the supernatant and cell-containing plates. The optical density at 405 nm of both plates was measured before and after a 1 h incubation at room temperature using a microplate reader (SpectraMax iD3, Molecular Devices, San Jose, CA, United States). AP-TGFα release was calculated using the following formulas:\n(§2) ΔOD405=OD450(1h)−OD405(0h)AP−TGFαinsupernatant(%)=(ΔOD405Sup/[ΔOD450Sup+ΔOD405Cell])×125AP−TGFαrelease(%)=AP−TGFαinsupernatantunderastimulatedcondition(%)−AP−TGFαinsupernatantunderavehicle−treatedcondition\n(§3) where OD405 (0 h) and […] represent the OD405 before and after a 1 h incubation, respectively, and OD405Sup and OD405Cell represent the OD405 of supernatant and cell plates, respectively. For all pharmacological analyses, nonlinear regression curve fitting was performed with a 3-parameter sigmoid model (Hill coefficient = 1) using Prism 8 (GraphPad Software, La Jolla, CA, United States)."}, "[2]": {"biological_target": "T1, is-octβ2R T60^1.41P mutant (Ixodes scapularis, UniProt A0ACM8E5E8)", "T1 sequence (A0ACM8E5E8 1-384 T39P)": "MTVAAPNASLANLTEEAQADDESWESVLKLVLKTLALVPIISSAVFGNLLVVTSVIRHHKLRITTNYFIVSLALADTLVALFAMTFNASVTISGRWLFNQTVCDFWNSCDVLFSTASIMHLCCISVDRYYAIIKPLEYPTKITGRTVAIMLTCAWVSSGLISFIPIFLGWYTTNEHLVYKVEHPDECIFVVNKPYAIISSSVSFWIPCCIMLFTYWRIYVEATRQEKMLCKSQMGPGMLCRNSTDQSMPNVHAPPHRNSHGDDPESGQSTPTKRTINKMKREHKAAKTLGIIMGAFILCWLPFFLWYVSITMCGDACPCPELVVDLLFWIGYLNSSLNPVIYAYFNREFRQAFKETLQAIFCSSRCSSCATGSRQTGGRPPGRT", "experiment": "TGFα shedding assay, amitraz-resistant mutant T60^1.41P", "assay_type": "cell-based", "conditions": "Table S4", "description": "as §1, §2, §3"}, "[3]": {"biological_target": "T2, is-octβ2R I61^1.42F mutant (Ixodes scapularis, UniProt A0ACM8E5E8, I40F)", "T2 sequence (A0ACM8E5E8 1-384 I40F)": "T1 sequence (A0ACM8E5E8 1-384 T39P) with P39T, I40F", "experiment": "TGFα shedding assay, amitraz-resistant mutant I61^1.42F", "assay_type": "cell-based", "conditions": "Table S4", "description": "as §1, §2, §3"}, "[4]": {"biological_target": "T3, is-octβ2R I62^1.43T mutant (Ixodes scapularis, UniProt A0ACM8E5E8, I41T)", "T3 sequence (A0ACM8E5E8 1-384 I41T)": "T1 sequence (A0ACM8E5E8 1-384 T39P) with P39T, I41T", "experiment": "TGFα shedding assay, amitraz-resistant mutant I62^1.43T", "assay_type": "cell-based", "conditions": "Table S4", "description": "as §1, §2, §3"}, "[5]": {"biological_target": "T4, is-octβ2R Y67^2.41S mutant (Ixodes scapularis, UniProt A0ACM8E5E8, Y67S)", "T4 sequence (A0ACM8E5E8 1-384 Y67S)": "T1 sequence (A0ACM8E5E8 1-384 T39P) with P39T, Y67S", "experiment": "TGFα shedding assay, amitraz-resistant mutant Y67^2.41S", "assay_type": "cell-based", "conditions": "Table S4", "description": "as §1, §2, §3"}, "[6]": {"biological_target": "T5, is-octβ2R N87^2.61S mutant (Ixodes scapularis, UniProt A0ACM8E5E8, N87S)", "T5 sequence (A0ACM8E5E8 1-384 N87S)": "T1 sequence (A0ACM8E5E8 1-384 T39P) with P39T, N87S", "experiment": "TGFα shedding assay, amitraz-resistant mutant N87^2.61S", "assay_type": "cell-based", "conditions": "Table S4", "description": "as §1, §2, §3"}, "[7]": {"biological_target": "T6, is-octβ2R Y215^5.58H mutant (Ixodes scapularis, UniProt A0ACM8E5E8, Y215H)", "T6 sequence (A0ACM8E5E8 1-384 Y215H)": "T1 sequence (A0ACM8E5E8 1-384 T39P) with P39T, Y215H", "experiment": "TGFα shedding assay, amitraz-resistant mutant Y215^5.58H", "assay_type": "cell-based", "description": "as §1, §2, §3"}, "[8]": {"test_system": "is-octβ2R Y215^5.58H mutant", "experiment": "TGFα shedding assay, amitraz-resistant mutant Y215^5.58H", "assay_type": "cell-based, Ixodes scapularis", "conditions": "versus wild type", "description": "as §1, §2, §3"}, "[9]": {"conditions": "HEK293, 1 h, Table S2, wild type, AP-TGFα release, HEK293 cells, mean ± SEM, n = 3"}, "[10]": {"conditions": "logEC50, Table S2, wild type, HEK293 cells, mean ± SEM, n = 3"}, "[11]": {"conditions": "Table S2, wild type, HEK293 cells, mean ± SEM, n = 3"}},
  "note": "Numbering of substitutions follows the chain as printed. Entries after “also recorded” stand apart in the source; their conditions may differ. Read-outs that look alike come from different tables or passages of the source.",
  "data": [
    {"molecule": "Cc1ccc(N)c(C)c1", "note": "[2′,4′-dimethylaniline]", "values": [
      {"measurement": "agonistic activity", "setting": "[1]; wild type", "value": "no agonist activity"}
    ]},
    {"molecule": "CNC[C@H](O)c1ccc(O)c(O)c1", "note": "[Adrenaline, adrenaline]", "values": [
      {"measurement": "EC50", "setting": "[1]", "value": 3160, "unit": "nM"},
      {"measurement": "Emax", "setting": "[1]; HEK293, 1 h", "value": "20 ± 2.1", "unit": "%"}
    ]},
    {"molecule": "Cc1ccc(/N=C/N(C)/C=N/c2ccc(C)cc2C)c(C)c1", "note": "[Amitraz]", "values": [
      {"measurement": "Emax", "setting": "[1]; 1 h, Table S4, WT, AP-TGFα release", "value": "17 ± 1", "unit": "%"},
      {"measurement": "Emax", "setting": "[1]; [9]", "value": "26 ± 0.9", "unit": "%"},
      {"measurement": "EC50", "setting": "[1]; LogEC50, Table S4, WT", "value": 31.6, "unit": "nM"},
      {"measurement": "EC50", "setting": "[1]; [10]", "value": 126, "unit": "nM"},
      {"measurement": "EC50", "setting": "[2]", "value": 31.6, "unit": "nM"},
      {"measurement": "EC50", "setting": "[3]", "value": 63.1, "unit": "nM"},
      {"measurement": "EC50", "setting": "[4]", "value": 15.8, "unit": "nM"},
      {"measurement": "EC50", "setting": "[5]", "value": 63.1, "unit": "nM"},
      {"measurement": "EC50", "setting": "[6]", "value": 50.1, "unit": "nM"},
      {"measurement": "EC50", "setting": "[7]", "value": 63.1, "unit": "nM"},
      {"measurement": "reduction of maximal response (Emax) by the Y215^5.58H mutation", "setting": "[8]", "value": "~50", "unit": "%"}
    ]},
    {"molecule": "Cc1ccc(NC=O)c(C)c1", "note": "[DMF, N-(2,4-dimethylphenyl)formamide]", "values": [
      {"measurement": "logEC50", "setting": "[1]; [11]", "value": "no activity"},
      {"measurement": "agonistic activity", "setting": "[1]; wild type", "value": "no agonistic activity"}
    ]},
    {"molecule": "NCCc1ccc(O)c(O)c1", "note": "[Dopamine, dopamine]", "values": [
      {"measurement": "logEC50", "setting": "[1]; [11]", "value": "signal observed only at 10-5 M"},
      {"measurement": "potency (EC50) relative to the other TDAs", "setting": "[1]; wild type", "value": "significantly weaker affinities; also recorded: lowest potency"}
    ]},
    {"molecule": "NC[C@H](O)c1ccc(O)c(O)c1", "note": "[Noradrenaline, noradrenaline]", "values": [
      {"measurement": "Emax", "setting": "[1]; [9]", "value": "32 ± 13.1", "unit": "%"},
      {"measurement": "EC50", "setting": "[1]; [10]", "value": 10000, "unit": "nM"},
      {"measurement": "potency (EC50) relative to the other TDAs", "setting": "[1]; wild type", "value": "significantly weaker affinities"}
    ]},
    {"molecule": "NCCc1ccc(O)cc1", "note": "[Tyramine, tyramine]", "values": [
      {"measurement": "EC50", "setting": "[1]", "value": 1580, "unit": "nM"},
      {"measurement": "Emax", "setting": "[1]; HEK293, 1 h", "value": "25 ± 1.7", "unit": "%"},
      {"measurement": "potency (EC50) relative to the other TDAs", "setting": "[1]; wild type", "value": "weaker potency"}
    ]}
  ]
}
